Tests used:
Assay type in all cases: functional
[1] = species: Rattus norvegicus; test: Mechanoinhibitory activity in presence of Glibenclamide (1 uM) was evaluated in KCl stimulated rat detrusor strip
[2] = species: Rattus norvegicus; test: Mechanoinhibitory activity was evaluated in KCl stimulated rat detrusor strip
[3] = species: Rattus norvegicus; test: Mechanoinhibitory activity was evaluated by spontaneous contraction of rat portal vein; + indicates enhancement in spontaneous contraction was observed
[4] = Mechanoinhibitory activity was evaluated by the ratio of IC50(portal vein)/IC50(bladder)
[5] = species: Rattus norvegicus; test: Mechanoinhibitory activity in presence of Glibenclamide (1 uM) was evaluated by spontaneous contraction of rat portal vein.
[6] = species: Rattus norvegicus; test: Mechanoinhibitory activity was evaluated by spontaneous contraction of rat portal vein.
[7] = species: Rattus norvegicus; test: Mechanoinhibitory activity (bladder-selective potassium channel opening activity) was evaluated in KCl stimulated rat detrusor strip

Row | IC50 [1] | IC50 [2] | IC50 [5] | IC50 [6] | IC50 [7] | Structure (SMILES) | Effect on spontaneous contraction [3] | Ratio [4]
1 | 123 µM | 66 µM | – | – | – | CC1(C)Oc2ccc(C#N)cc2[C@@H]2[C@@H]1OCCN2C(=O)c1ccccc1 | enhancement in spontaneous contraction | –
2 | 318 µM | 47.2 µM | 92.6 µM | 64.9 µM | – | CCC(=O)N1CCO[C@H]2[C@H]1c1cc(C#N)ccc1OC2(C)C | – | 1.38
3 | 158 µM | 152 µM | – | – | – | CC1(C)Oc2ccc(C#N)cc2[C@@H]2[C@@H]1OCCN2C=O | enhancement in spontaneous contraction | –
4 | 53.2 µM | 8.8 µM | 60.9 µM | 2.7 µM | – | CC(=O)N1CCO[C@@H]2[C@H]1c1cc(C#N)ccc1OC2(C)C | – | 0.31
5 | 129 µM | 65.7 µM | 28.3 µM | 26.2 µM | – | CN1C(=O)CO[C@H]2[C@@H]1c1cc(C#N)ccc1OC2(C)C | – | 0.4
6 | 130 µM | 68.2 µM | – | – | – | CC1(C)Oc2ccc(C#N)cc2[C@@H]2[C@@H]1OCC(=O)N2Cc1ccccc1 | enhancement in spontaneous contraction | –
7 | 79.5 µM | 43.8 µM | 72.8 µM | 50.2 µM | – | CN1C(=O)CO[C@H]2[C@H]1c1cc(C#N)ccc1OC2(C)C | – | 1.15
8 | 244 µM | 104 µM | – | 127 µM | – | CC(C)C(=O)N1CCO[C@H]2[C@H]1c1cc(C#N)ccc1OC2(C)C | – | 1.22
9 | 153 µM | 70.1 µM | 79.3 µM | 5.9 µM | – | CC(=O)N1CCO[C@H]2[C@H]1c1cc(C#N)ccc1OC2(C)C | – | 0.08
10 | 279 µM | 51.8 µM | 117 µM | 62.8 µM | – | CC1(C)Oc2ccc(C#N)cc2[C@@H]2[C@H]1OCCN2C=O | – | 1.21
11 | 8.7 µM | 0.82 µM | 4.9 µM | 0.13 µM | – | CC1(C)Oc2ccc(C#N)cc2[C@@H](N2CCCC2=O)[C@@H]1O [LEVCROMAKALIM] | – | 0.16
12 | 56.3 µM | 53.1 µM | – | – | – | CC1(C)Oc2ccc(C#N)cc2[C@H]2NC(=O)CO[C@@H]21 | enhancement in spontaneous contraction | –
13 | 141 µM | 51.8 µM | 52.6 µM | 20.1 µM | – | CCC(=O)N1CCO[C@@H]2[C@H]1c1cc(C#N)ccc1OC2(C)C | – | 0.39
14 | 268 µM | 56.4 µM | 58.9 µM | 18.4 µM | – | CC(C)C(=O)N1CCO[C@@H]2[C@H]1c1cc(C#N)ccc1OC2(C)C | – | 0.33
15 | 32.8 µM | – | 45.5 µM | 34.5 µM | 8.15 µM | CC1(C)Oc2ccc(C#N)cc2[C@@H]2[C@H]1OCCN2C(=O)c1ccccc1 | – | 4.23
